Source: US4129737A, “Process for the preparation of an 8-alkyl-5-oxo-5,8-dihydro-pyrido(2,3-d)pyrimidine-6-carboxylic acid” (priority 1972, dated 1978)
In brackets after ≈: the same amount, converted by molar mass. Like-named read-outs stand apart in the source and are kept apart here.

Assays:
[1] = system: Sh. sonnei; assay: Minimum inhibitory concentration by agar dilution, Sh. sonnei; type: cell-based; details: Shigella sonnei, 37° C., 18 hours, read-out: minimum inhibitory concentration (M.I.C.)
Procedure: (§1) (a) Trypticase soya medium (T.S.A.), which is very suitable for culturing the majority of microorganisms; it has the following composition:
(§2) (b) Ordinarily nutrient agar (N.A.), which is less rich in nutrients, corresponds to the following formulation: […]
(§3) Table I gives the minimum inhibitory concentrations (expressed in μg/cm^3) for the various microorganisms tested on each medium.
(§4) The products were tested on three Gram positive microorganisms (1 to 3) […] and on 10 Gram negative microorganisms (4 to 13).
(§5) Table (II) gives the minimum inhibitory concentrations of the compounds of Examples XII to XVI, determined on the agar medium, N.A., and expressed in μg/cm^3.

[2] = system: Esch. coli. Cho; assay: Average MIC, solid medium (nutrient agar) dilution method; details: Escherichia coli, 18 h, read-out: minimum inhibitory concentration, average
[3] = system: Ps. aeruginosa A22; assay: as above; details: Pseudomonas aeruginosa, A22, 18 h, read-out: minimum inhibitory concentration, average
[4] = system: Esch. coli. 95 I.S.M.; assay: as above; details: Escherichia coli, 18 h, read-out: minimum inhibitory concentration, average
[5] = system: Streptococcus; assay: Minimum inhibitory concentration by agar dilution, Streptococcus Group A; type: cell-based; details: 37° C., 18 hours, read-out: minimum inhibitory concentration (M.I.C.)
Procedure: as §1, §2, §3, §4, §5

[6] = system: Arizona 6211; assay: Average MIC, solid medium (nutrient agar) dilution method; details: 18 h, read-out: minimum inhibitory concentration, average
[7] = system: Bord. bronchiseptica; assay: Minimum inhibitory concentration by agar dilution, Bord. bronchiseptica; type: cell-based; details: Bordetella bronchiseptica, 37° C., 18 hours, read-out: minimum inhibitory concentration (M.I.C.)
Procedure: as §1, §2, §3, §4, §5

[8] = system: Sh. sonnei I.P.S.; assay: Average MIC, solid medium (nutrient agar) dilution method; type: cell-based; details: Shigella sonnei, 18 h, average of five determinations, read-out: minimum inhibitory concentration, average
[9] = system: Staphylococcus 9144; assay: as above; details: Staphylococcus, 9144, 18 h, read-out: minimum inhibitory concentration, average
[10] = system: mice; assay: Oral toxicity in mice; type: in vivo; details: doses as high as 4 g per kilogram
[11] = system: Pr. vulgaris 12-53; assay: Average MIC, solid medium (nutrient agar) dilution method; details: Proteus vulgaris, 1253, 18 h, read-out: minimum inhibitory concentration, average
[12] = system: Esch 111 B4; assay: as above; type: cell-based; details: 18 h, average of five determinations, read-out: minimum inhibitory concentration, average
[13] = system: rats; assay: Oral toxicity in rats; type: in vivo; details: doses as high as 4 g per kilogram
[14] = system: Klebs. pneumoniae; assay: Minimum inhibitory concentration by agar dilution, Klebs. pneumoniae; type: cell-based; details: Klebsiella pneumoniae, 37° C., 18 hours, read-out: minimum inhibitory concentration (M.I.C.)
Procedure: as §1, §2, §3, §4, §5

[15] = system: S. enteritidis DANYZ; assay: Average MIC, solid medium (nutrient agar) dilution method; details: Salmonella enterica, 18 h, read-out: minimum inhibitory concentration, average
[16] = system: B. pyocyaneus A22; assay: Minimum inhibitory concentration by agar dilution, B. pyocyaneus A22; type: cell-based; details: Pseudomonas aeruginosa, A22, 37° C., 18 hours, read-out: minimum inhibitory concentration (M.I.C.)
Procedure: as §1, §2, §3, §4, §5

[17] = in vivo; details: dog, 2.5 mg/kg
Procedure: In an experiment involving a 20 kg dog, 50 mg of the compound of Example VIII, corresponding to 2.5 mg/kg, were administered by means of a probang. The urine of the animal was removed by catheterisation at the 3rd and at the 7th hour, and the anti-bacterial activity of these samples was measured, taking the compound administered as the reference product.

[18] = system: Pr. mirabilis; assay: Minimum inhibitory concentration by agar dilution, Pr. mirabilis; type: cell-based; details: Proteus mirabilis, 37° C., 18 hours, read-out: minimum inhibitory concentration (M.I.C.)
Procedure: as §1, §2, §3, §4, §5

[19] = system: Staphylococcus 209P; assay: Average MIC, solid medium (nutrient agar) dilution method; details: 18 h, read-out: minimum inhibitory concentration, average
[20] = system: B. subtilis; assay: Minimum inhibitory concentration by agar dilution, B. subtilis; type: cell-based; details: Bacillus subtilis, 37° C., 18 hours, read-out: minimum inhibitory concentration (M.I.C.)
Procedure: as §1, §2, §3, §4, §5

[21] = system: Pr. morganii; assay: Minimum inhibitory concentration by agar dilution, Pr. morganii; type: cell-based; details: Morganella morganii, 37° C., 18 hours, read-out: minimum inhibitory concentration (M.I.C.)
Procedure: as §1, §2, §3, §4, §5

[22] = system: Pr. morganii A 236; assay: Average MIC, solid medium (nutrient agar) dilution method; details: Morganella morganii, A236, 18 h, read-out: minimum inhibitory concentration, average
[23] = system: Esch. Coli 95; assay: Minimum inhibitory concentration by agar dilution, Esch. Coli 95; type: cell-based; details: Escherichia coli, 37° C., 18 hours, read-out: minimum inhibitory concentration (M.I.C.)
Procedure: as §1, §2, §3, §4, §5

[24] = system: Streptococcus A561; assay: Average MIC, solid medium (nutrient agar) dilution method; details: A561, 18 h, read-out: minimum inhibitory concentration, average
[25] = system: S. oranienburg 10-66; assay: as above; details: Salmonella enterica, 1066, 18 h, read-out: minimum inhibitory concentration, average
[26] = system: Staphylococcus SIM; assay: as above; details: 18 h, read-out: minimum inhibitory concentration, average
[27] = N.A. (nutrient agar, pH 6.8), Table I
[28] = T.S.A. (trypticase soya medium, pH 7.3)

## CCn1cc(C(=O)O)c(=O)c2cnc(N3CCNCC3)nc21 [Example VIII, 2-Piperazino-5-oxo-8-ethyl-5,8-dihydro-pyrido(2,3-d)pyrimidine-6-carboxylicacid]
[1]; [27]
  MIC: 0.8 µg/mL (≈ 2.64 µM)
[1]; [28]
  MIC: 0.8 µg/mL (≈ 2.64 µM)
[2]
  MIC: 2.66 µg/mL (≈ 8.77 µM)
[3]
  MIC: 12.5 µg/mL (≈ 41.2 µM)
[4]
  MIC: 5.14 µg/mL (≈ 16.9 µM)
[5]; [27]
  MIC: 25 µg/mL (≈ 82.4 µM)
[5]; [28]
  MIC: 25 µg/mL (≈ 82.4 µM)
[6]
  MIC: 1.26 µg/mL (≈ 4.15 µM)
[7]; [27]
  MIC: 12.5 µg/mL (≈ 41.2 µM)
[7]; [28]
  MIC: 50 µg/mL (≈ 165 µM)
[8]
  MIC: 0.56 µg/mL (≈ 1.85 µM)
[9]
  MIC: 6.22 µg/mL (≈ 20.5 µM)
[10]
  deaths: no deaths were observed
[11]
  MIC: 0.36 µg/mL (≈ 1.19 µM)
[12]
  MIC: 1.64 µg/mL (≈ 5.41 µM)
[13]
  deaths: no deaths were observed
[14]; [27]
  MIC: 0.8 µg/mL (≈ 2.64 µM)
[14]; [28]
  MIC: 1.6 µg/mL (≈ 5.27 µM)
[15]
  MIC: 1.2 µg/mL (≈ 3.96 µM)
[16]; [27]
  MIC: 25 µg/mL (≈ 82.4 µM)
[16]; [28]
  MIC: 12.5 µg/mL (≈ 41.2 µM)
[17]
  urinary concentration at 7 hours relative to minimum inhibitory concentrations: still very much greater than the minimum inhibitory concentrations
[17]; po
  concentration at 3 h: 185 µg/mL
  concentration at 7 h: 90 µg/mL
[18]; [27]
  MIC: 0.8 µg/mL (≈ 2.64 µM)
[18]; [28]
  MIC: 0.8 µg/mL (≈ 2.64 µM)
[19]
  MIC: 6.22 µg/mL (≈ 20.5 µM)
[20]; [27]
  MIC: 3.1 µg/mL (≈ 10.2 µM)
[20]; [28]
  MIC: 6.2 µg/mL (≈ 20.4 µM)
[21]; [27]
  MIC: 0.8 µg/mL (≈ 2.64 µM)
[21]; [28]
  MIC: 0.8 µg/mL (≈ 2.64 µM)
[22]
  MIC: 0.4 µg/mL (≈ 1.32 µM)
[23]; [27]
  MIC: 0.8 µg/mL (≈ 2.64 µM)
[23]; [28]
  MIC: 0.8 µg/mL (≈ 2.64 µM)
[24]
  MIC: 13.7 µg/mL (≈ 45.3 µM)
[25]
  MIC: 27.5 µg/mL (≈ 90.7 µM)
[26]
  MIC: 12.5 µg/mL (≈ 41.1 µM)
